Assay: xn = mol fraction of the nth substance listed
Details: 101 kPa, Liquid; for speed of sound: Sing-around technique in a fixed-path interferometer

CCOC(C)(C)C [2-ethoxy-2-methylpropane] + Cc1ccc(C)cc1
Details	mass density [kg/m3]	speed of sound [m/s]
288.15 K, x1 = 0.062	857.461	1332.5
288.15 K, x1 = 0.123	849.969	1315.3
288.15 K, x1 = 0.238	836.401	1283.6
288.15 K, x1 = 0.35	822.903	1252.6
288.15 K, x1 = 0.455	810.328	1223.7
288.15 K, x1 = 0.557	798.162	1195.8
288.15 K, x1 = 0.654	786.517	1169.2
288.15 K, x1 = 0.746	775.593	1144.4
288.15 K, x1 = 0.834	764.97	1120.8
288.15 K, x1 = 0.902	756.828	1102.5
288.15 K, x1 = 0.959	749.995	1087.2
288.15 K, x1 = 1	744.955	1076.4
290.65 K, x1 = 0.062	855.329	1321.8
290.65 K, x1 = 0.123	847.837	1304.4
290.65 K, x1 = 0.238	834.222	1272.7
290.65 K, x1 = 0.35	820.676	1241.5
290.65 K, x1 = 0.455	808.058	1212.6
290.65 K, x1 = 0.557	795.855	1184.6
290.65 K, x1 = 0.654	784.174	1158
290.65 K, x1 = 0.746	773.205	1133.1
290.65 K, x1 = 0.834	762.549	1109.4
290.65 K, x1 = 0.902	754.379	1091
290.65 K, x1 = 0.959	747.527	1076
290.65 K, x1 = 1	742.482	1065.1
293.15 K, x1 = 0.062	853.16	1311
293.15 K, x1 = 0.123	845.64	1293.7
293.15 K, x1 = 0.238	831.974	1261.7
293.15 K, x1 = 0.35	818.389	1230.6
293.15 K, x1 = 0.455	805.723	1201.5
293.15 K, x1 = 0.557	793.481	1173.4
293.15 K, x1 = 0.654	781.767	1146.8
293.15 K, x1 = 0.746	770.753	1121.7
293.15 K, x1 = 0.834	760.076	1098.1
293.15 K, x1 = 0.902	751.872	1079.6
293.15 K, x1 = 0.959	745.006	1064.5
293.15 K, x1 = 1	739.947	1053.7
295.65 K, x1 = 0.062	850.963	1300.3
295.65 K, x1 = 0.123	843.426	1282.9
295.65 K, x1 = 0.238	829.705	1250.9
295.65 K, x1 = 0.35	816.087	1219.6
295.65 K, x1 = 0.455	803.381	1190.5
295.65 K, x1 = 0.557	791.102	1162.2
295.65 K, x1 = 0.654	779.339	1135.5
295.65 K, x1 = 0.746	768.276	1110.5
295.65 K, x1 = 0.834	757.573	1086.7
295.65 K, x1 = 0.902	749.342	1068.2
295.65 K, x1 = 0.959	742.457	1053.1
295.65 K, x1 = 1	737.374	1042.2
298.15 K, x1 = 0.062	848.771	1289.8
298.15 K, x1 = 0.123	841.223	1272.5
298.15 K, x1 = 0.238	827.443	1240.2
298.15 K, x1 = 0.35	813.789	1208.9
298.15 K, x1 = 0.455	801.037	1179.6
298.15 K, x1 = 0.557	788.722	1151.4
298.15 K, x1 = 0.654	776.911	1124.5
298.15 K, x1 = 0.746	765.812	1099.4
298.15 K, x1 = 0.834	755.077	1075.5
298.15 K, x1 = 0.902	746.808	1057
298.15 K, x1 = 0.959	739.904	1041.9
298.15 K, x1 = 1	734.806	1031
300.65 K, x1 = 0.062	846.559	1279.4
300.65 K, x1 = 0.123	839.002	1262.1
300.65 K, x1 = 0.238	825.16	1229.7
300.65 K, x1 = 0.35	811.468	1198.2
300.65 K, x1 = 0.455	798.683	1168.9
300.65 K, x1 = 0.557	786.313	1140.5
300.65 K, x1 = 0.654	774.466	1113.6
300.65 K, x1 = 0.746	763.325	1088.4
300.65 K, x1 = 0.834	752.561	1064.5
300.65 K, x1 = 0.902	744.252	1045.9
300.65 K, x1 = 0.959	737.326	1030.6
300.65 K, x1 = 1	732.225	1019.8
303.15 K, x1 = 0.062	844.378	1269.2
303.15 K, x1 = 0.123	836.793	1251.8
303.15 K, x1 = 0.238	822.9	1219.2
303.15 K, x1 = 0.35	809.173	1187.7
303.15 K, x1 = 0.455	796.342	1158.2
303.15 K, x1 = 0.557	783.933	1129.8
303.15 K, x1 = 0.654	772.039	1102.8
303.15 K, x1 = 0.746	760.846	1077.5
303.15 K, x1 = 0.834	750.063	1053.5
303.15 K, x1 = 0.902	741.716	1034.8
303.15 K, x1 = 0.959	734.772	1019.6
303.15 K, x1 = 1	729.647	1008.6
305.65 K, x1 = 0.062	842.155	1258.9
305.65 K, x1 = 0.123	834.557	1241.4
305.65 K, x1 = 0.238	820.611	1208.8
305.65 K, x1 = 0.35	806.841	1177.1
305.65 K, x1 = 0.455	793.966	1147.5
305.65 K, x1 = 0.557	781.512	1119
305.65 K, x1 = 0.654	769.583	1091.9
305.65 K, x1 = 0.746	758.333	1066.6
305.65 K, x1 = 0.834	747.515	1042.5
305.65 K, x1 = 0.902	739.137	1023.8
305.65 K, x1 = 0.959	732.166	1008.5
305.65 K, x1 = 1	727.038	997.52
308.15 K, x1 = 0.062	839.962	1248.7
308.15 K, x1 = 0.123	832.343	1231.1
308.15 K, x1 = 0.238	818.339	1198.4
308.15 K, x1 = 0.35	804.54	1166.7
308.15 K, x1 = 0.455	791.627	1137.1
308.15 K, x1 = 0.557	779.104	1108.3
308.15 K, x1 = 0.654	767.142	1081.2
308.15 K, x1 = 0.746	755.854	1055.7
308.15 K, x1 = 0.834	745.002	1031.6
308.15 K, x1 = 0.902	736.575	1012.8
308.15 K, x1 = 0.959	729.598	997.44
308.15 K, x1 = 1	724.443	986.39
310.65 K, x1 = 0.062	837.759	1238.5
310.65 K, x1 = 0.123	830.128	1220.9
310.65 K, x1 = 0.238	816.051	1188
310.65 K, x1 = 0.35	802.206	1156.1
310.65 K, x1 = 0.455	789.243	1126.3
310.65 K, x1 = 0.557	776.705	1097.6
310.65 K, x1 = 0.654	764.679	1070.4
310.65 K, x1 = 0.746	753.335	1044.9
310.65 K, x1 = 0.834	742.455	1020.6
310.65 K, x1 = 0.902	733.99	1001.8
310.65 K, x1 = 0.959	726.994	986.36
310.65 K, x1 = 1	721.826	975.42
313.15 K, x1 = 0.062	835.532	1228.3
313.15 K, x1 = 0.123	827.882	1210.7
313.15 K, x1 = 0.238	813.765	1177.8
313.15 K, x1 = 0.35	799.872	1145.7
313.15 K, x1 = 0.455	786.866	1115.8
313.15 K, x1 = 0.557	774.27	1087
313.15 K, x1 = 0.654	762.204	1059.7
313.15 K, x1 = 0.746	750.812	1034.1
313.15 K, x1 = 0.834	739.901	1009.8
313.15 K, x1 = 0.902	731.4	990.86
313.15 K, x1 = 0.959	724.383	975.56
313.15 K, x1 = 1	719.179	964.53
315.65 K, x1 = 0.062	833.306	1218.3
315.65 K, x1 = 0.123	825.641	1200.6
315.65 K, x1 = 0.238	811.445	1167.5
315.65 K, x1 = 0.35	797.52	1135.4
315.65 K, x1 = 0.455	784.471	1105.4
315.65 K, x1 = 0.557	771.824	1076.4
315.65 K, x1 = 0.654	759.71	1049.1
315.65 K, x1 = 0.746	748.28	1023.4
315.65 K, x1 = 0.834	737.319	998.93
315.65 K, x1 = 0.902	728.791	980.02
315.65 K, x1 = 0.959	721.749	964.74
315.65 K, x1 = 1	716.527	953.54
318.15 K, x1 = 0.062	831.175	1208.1
318.15 K, x1 = 0.123	823.476	1190.2
318.15 K, x1 = 0.238	809.233	1157
318.15 K, x1 = 0.35	795.26	1124.9
318.15 K, x1 = 0.455	782.164	1094.8
318.15 K, x1 = 0.557	769.47	1065.8
318.15 K, x1 = 0.654	757.309	1038.5
318.15 K, x1 = 0.746	745.827	1012.6
318.15 K, x1 = 0.834	734.831	988.25
318.15 K, x1 = 0.902	726.264	969.29
318.15 K, x1 = 0.959	719.189	953.77
318.15 K, x1 = 1	713.96	942.67
320.65 K, x1 = 0.062	828.907	1197.9
320.65 K, x1 = 0.123	821.186	1180
320.65 K, x1 = 0.238	806.89	1146.7
320.65 K, x1 = 0.35	792.863	1114.4
320.65 K, x1 = 0.455	779.723	1084.3
320.65 K, x1 = 0.557	766.974	1055.2
320.65 K, x1 = 0.654	754.765	1027.7
320.65 K, x1 = 0.746	743.239	1001.8
320.65 K, x1 = 0.834	732.197	977.45
320.65 K, x1 = 0.902	723.589	958.35
320.65 K, x1 = 0.959	716.494	942.81
320.65 K, x1 = 1	711.25	931.73
323.15 K, x1 = 0.062	826.773	1187.7
323.15 K, x1 = 0.123	819.029	1169.7
323.15 K, x1 = 0.238	804.681	1136.3
323.15 K, x1 = 0.35	790.599	1103.9
323.15 K, x1 = 0.455	777.399	1073.7
323.15 K, x1 = 0.557	764.613	1044.6
323.15 K, x1 = 0.654	752.347	1017.1
323.15 K, x1 = 0.746	740.77	991.05
323.15 K, x1 = 0.834	729.685	966.6
323.15 K, x1 = 0.902	721.039	947.53
323.15 K, x1 = 0.959	713.92	931.92
323.15 K, x1 = 1	708.642	920.73

From the NIST ThermoML archive (doi:10.1016/j.fluid.2008.03.004)
